The record followed here is PubChem BioAssay AID2060502 (Molecular Pharmacology Branch, DTP, NCI, 2025).

The subject of the assay is 885724-159-R-J1-PDC complex spheroid viability. The assay can be described thus: Anticancer human tumor 885724-159-R-J1-PDC patient-derived pancreatic adenocarcinoma cell line growth inhibition [GQUAD]. The conditions noted are these: for viability, T/C: stronger effect = lower value. An outline of the steps: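 Viability of tumor cells grown as complex spheroids with endothelial and stromal cells, exposed to drug combinations. Top concentration at or near clinical Cmax (else 10 microM), diluted in half-log increments.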

[1] abbreviates: curve of first compound, second compound 0.0316 µM.
Where [2] appears, read: curve of first compound, second compound 0.1 µM.
Where [3] appears, read: curve of first compound, second compound 0.316 µM.
The mark [4] stands for this setting: curve of first compound, second compound 1 µM.
The mark [5] stands for this setting: curve of first compound, second compound 3.16 µM.
[6] abbreviates: curve of first compound, second compound 10 µM.
The mark [7] stands for this setting: second compound 0.0316 µM, first compound 0.0316 µM.
[8] abbreviates: second compound 0.0316 µM, first compound 0.1 µM.
The mark [9] stands for this setting: second compound 0.0316 µM, first compound 0.316 µM.
The mark [10] stands for this setting: second compound 0.0316 µM, first compound 1 µM.
Where [11] appears, read: second compound 0.0316 µM, first compound 3.16 µM.
Setting [12] is: second compound 0.0316 µM, first compound 10 µM.
The mark [13] stands for this setting: second compound 0.1 µM, first compound 0.0316 µM.
[14] abbreviates: second compound 0.1 µM, first compound 0.1 µM.
[15] abbreviates: second compound 0.1 µM, first compound 0.316 µM.
Setting [16] is: second compound 0.1 µM, first compound 1 µM.
[17] abbreviates: second compound 0.1 µM, first compound 3.16 µM.
Where [18] appears, read: second compound 0.1 µM, first compound 10 µM.
Setting [19] is: second compound 0.316 µM, first compound 0.0316 µM.
The mark [20] stands for this setting: second compound 0.316 µM, first compound 0.1 µM.
Where [21] appears, read: second compound 0.316 µM, first compound 0.316 µM.
[22] abbreviates: second compound 0.316 µM, first compound 1 µM.
The mark [23] stands for this setting: second compound 0.316 µM, first compound 3.16 µM.
Where [24] appears, read: second compound 0.316 µM, first compound 10 µM.
The mark [25] stands for this setting: second compound 1 µM, first compound 0.0316 µM.
The mark [26] stands for this setting: second compound 1 µM, first compound 0.1 µM.
[27] abbreviates: second compound 1 µM, first compound 0.316 µM.
Where [28] appears, read: second compound 1 µM, first compound 1 µM.
Setting [29] is: second compound 1 µM, first compound 3.16 µM.
[30] abbreviates: second compound 1 µM, first compound 10 µM.
Setting [31] is: second compound 3.16 µM, first compound 0.0316 µM.
Setting [32] is: second compound 3.16 µM, first compound 0.1 µM.
The mark [33] stands for this setting: second compound 3.16 µM, first compound 0.316 µM.
Setting [34] is: second compound 3.16 µM, first compound 1 µM.
The mark [35] stands for this setting: second compound 3.16 µM, first compound 3.16 µM.
Where [36] appears, read: second compound 3.16 µM, first compound 10 µM.
The mark [37] stands for this setting: second compound 10 µM, first compound 0.0316 µM.
[38] abbreviates: second compound 10 µM, first compound 0.1 µM.
Setting [39] is: second compound 10 µM, first compound 0.316 µM.
Setting [40] is: second compound 10 µM, first compound 1 µM.
Where [41] appears, read: second compound 10 µM, first compound 3.16 µM.
[42] abbreviates: second compound 10 µM, first compound 10 µM.

Where “and” joins values, the source holds several entries; their conditions need not be identical. Identical values can stand only once.
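Also: spheroids exposed to agents for seven days before readout.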
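For viability, T/C in this document: percent of vehicle control viability where 100% = DMSO wells.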

A word on the viability, T/C: it is the result in the treated group divided by that in the control group, in per cent. The term IC50 denotes the midpoint of a concentration-inhibition curve. Turning to `CC1COCCN1c1cc(C2(O)CC3CCC(C2)O3)c2cnn(-c3ccn[nH]3)c2n1` (stereo not drawn), the viability, T/C by setting is: (compound 0.0316 µM) 86.4% and 103% and 91.5%; (compound 0.1 µM) 85.4% and 80.9% and 79.5%; (compound 0.316 µM) 74.2% and 74.5% and 71.8%; (compound 1 µM) 48.6% and 56% and 53.5%; (compound 3.16 µM) 37.3% and 46.2% and 47.5%; (compound 10 µM) 28.3% and 38.1% and 36.4%. In addition, the IC50 (curve of compound) was 1.01 µM and 2.21 µM and 1.99 µM.
Consider `C#Cc1c(F)ccc2cc(O)cc(-c3ncc4c(N5CC6CCC(C5)N6)nc(OCC56CCCN5CC(F)C6)nc4c3F)c12` (stereo not drawn) + Cc1[nH]c2ccc(F)cc2c1-c1nc2c3cccnc3c3ncccc3c2[nH]1, for which the IC50 is 4.05 µM under setting [1]; 3.75 µM under setting [2]; 4.07 µM under setting [3]; 3.55 µM under setting [4]; below 0.0316 µM under setting [5]; 4.5 µM under setting [6]. For the same compound, the viability, T/C runs as follows: under setting [7], 97%; under setting [8], 89.2%; under setting [9], 90.3%; under setting [10], 76.1%; under setting [11], 57.5%; under setting [12], 23.4%. Also, the viability, T/C was 101% under setting [13]; 97.8% under setting [14]; 102% under setting [15]; 87.4% under setting [16]; 54.6% under setting [17]; 24.9% under setting [18]. Also, the viability, T/C under setting [19] is 94.5%; the viability, T/C under setting [20] is 80.4%; the viability, T/C under setting [21] is 85.4%; the viability, T/C under setting [22] is 62.9%; the viability, T/C under setting [23] is 63.1%; the viability, T/C under setting [24] is 28%. For the same compound, the viability, T/C runs as follows: under setting [25], 72.5%; under setting [26], 69.2%; under setting [27], 75%; under setting [28], 59.4%; under setting [29], 54.2%; under setting [30], 29.5%. Moreover, the viability, T/C by setting is: under setting [31], 18.4%; under setting [32], 8.81%; under setting [33], 12.7%; under setting [34], 11.5%; under setting [35], 9.79%; under setting [36], 6.07%. Also, the viability, T/C under setting [37] is 63.1%; the viability, T/C under setting [38] is 75.8%; the viability, T/C under setting [39] is 66%; the viability, T/C under setting [40] was 61.2%; the viability, T/C under setting [41] was 63.2%; the viability, T/C under setting [42] is 21.7%.
As for `CCCS(=O)(=O)Nc1ccc(F)c(C(=O)c2c[nH]c3ncc(-c4ccc(Cl)cc4)cc23)c1F` + CN(C)c1ccc(Nc2c3ccc(NC(=O)CCN4CCCC4)cc3nc3cc(NC(=O)CCN4CCCC4)ccc23)cc1, the IC50 by setting is: under setting [1], above 10 µM; under setting [2], above 10 µM; under setting [3], above 10 µM; under setting [4], above 10 µM; under setting [5], 9.74 µM; under setting [6], 5.73 µM. Besides, the viability, T/C is, setting by setting: under setting [7], 112%; under setting [8], 114%; under setting [9], 116%; under setting [10], 130%; under setting [11], 139%; under setting [12], 84.7%. Besides, the viability, T/C under setting [13] is 99.8%; the viability, T/C under setting [14] was 98.1%; the viability, T/C under setting [15] is 121%; the viability, T/C under setting [16] was 129%; the viability, T/C under setting [17] is 133%; the viability, T/C under setting [18] was 65.5%. Moreover, the viability, T/C runs as follows: under setting [19], 97%; under setting [20], 99.3%; under setting [21], 108%; under setting [22], 107%; under setting [23], 146%; under setting [24], 66%. The viability, T/C by setting is: under setting [25], 80.4%; under setting [26], 82%; under setting [27], 109%; under setting [28], 118%; under setting [29], 134%; under setting [30], 64.4%. The viability, T/C is 81% under setting [31]; 74.2% under setting [32]; 101% under setting [33]; 101% under setting [34]; 114% under setting [35]; 48.9% under setting [36]. Moreover, the viability, T/C is, setting by setting: under setting [37], 80.2%; under setting [38], 73.1%; under setting [39], 82.1%; under setting [40], 99.5%; under setting [41], 93.9%; under setting [42], 16.5%.
`CC(=O)O[C@H]1C(=O)[C@@]2(C)[C@H]([C@H](OC(=O)c3ccccc3)[C@]3(O)C[C@H](OC(=O)[C@H](O)[C@@H](NC(=O)c4ccccc4)c4ccccc4)C(C)=C1C3(C)C)[C@]1(OC(C)=O)CO[C@@H]1C[C@@H]2O`: the viability, T/C is 100% and 92% and 97.8% (compound 0.0316 µM); 66.6% and 80.5% and 89.4% (compound 0.1 µM); 82.2% and 93.6% and 90.7% (compound 0.316 µM); 83.6% and 86.1% and 96.7% (compound 1 µM); 89.6% and 91% and 100% (compound 3.16 µM); 93% and 104% and 107% (compound 10 µM). For the same compound, under “curve of compound”, the concentration for half-maximal inhibition (IC50) was above 10 µM.
Regarding `COc1ccc([C@@H](O)c2cc(-c3ncnc4cc(N5CCOCC5)ccc34)c(F)cc2Cl)nn1`, the viability, T/C (compound 0.0316 µM) was 97.9% and 93.6% and 102%; the viability, T/C (compound 0.1 µM) is 99.9% and 83.8% and 90.8%; the viability, T/C (compound 0.316 µM) was 85.5% and 98.2% and 81.1%; the viability, T/C (compound 1 µM) is 87.8% and 74.6% and 83.2%; the viability, T/C (compound 3.16 µM) was 64.8% and 59.1% and 64.2%; the viability, T/C (compound 10 µM) is 39.9% and 41.8% and 37.1%. Further, for the setting “curve of compound”, the IC50 was 6.4 µM and 5.56 µM and 5.78 µM.
With `O=C(NO)c1cnc(N2CCN(S(=O)(=O)c3ccc4ccccc4c3)CC2)nc1`, the viability, T/C is 90.6% and 97.6% and 84% (compound 0.0316 µM); 98.7% and 96.6% and 80% (compound 0.1 µM); 94.2% and 85.3% and 72% (compound 0.316 µM); 43.3% and 36.8% and 41.2% (compound 1 µM); 1.62% and 0.69% and 11.8% (compound 3.16 µM); 0.25% and 0.51% and 0.27% (compound 10 µM). Under “curve of compound”, the IC50 is 0.859 µM and 0.726 µM and 0.723 µM.
On to `CC(C)(O)C1CCC(Nc2ccc3ncc(-c4cccc(C(F)(F)F)c4)n3n2)CC1` (stereo not drawn), for which the viability, T/C (compound 0.0316 µM) was 110% and 93.1% and 96.4%; the viability, T/C (compound 0.1 µM) is 95% and 90.9% and 102%; the viability, T/C (compound 0.316 µM) was 85.7% and 91.3% and 93.8%; the viability, T/C (compound 1 µM) is 75.3% and 74.9% and 73.6%; the viability, T/C (compound 3.16 µM) was 45.3% and 41.7% and 38.7%; the viability, T/C (compound 10 µM) was 46% and 47.1% and 39.8%. In addition, where the note is “curve of compound”, the IC50 is 4.44 µM and 2.56 µM and 2.25 µM.
On to `C=CCn1c(=O)c2cnc(Nc3ccc(N4CCN(C)CC4)cc3)nc2n1-c1cccc(C(C)(C)O)n1`, for which the viability, T/C (compound 0.0316 µM) is 90.4% and 95.2% and 93.1%; the viability, T/C (compound 0.1 µM) is 81.6% and 90.3% and 88.1%; the viability, T/C (compound 0.316 µM) was 68.6% and 78.2% and 86%; the viability, T/C (compound 1 µM) was 75.6% and 70.3% and 89.2%; the viability, T/C (compound 3.16 µM) is 65.7% and 58% and 84%; the viability, T/C (compound 10 µM) was 74.5% and 66.7% and 91.9%. Also, for the setting “curve of compound”, the IC50 is above 10 µM.
With `CC(C)n1c(=O)n(C)c2cnc3cc(F)c(-c4ccc(OCCCN5CCCCC5)nc4)cc3c21`, the viability, T/C is 102% (2×) and 106% (compound 0.0316 µM); 100% and 103% and 96.6% (compound 0.1 µM); 83.3% and 94.1% and 102% (compound 0.316 µM); 107% and 108% and 86.7% (compound 1 µM); 95.5% and 86.1% and 102% (compound 3.16 µM); 87.7% and 68.2% and 77.4% (compound 10 µM). Further, the IC50 (curve of compound) was above 10 µM.
